# Key:
# ABTS assay = conditions: for % inhibition: standard curve (Figure S11)
# Description: In brief, the production of the ABTS radical cation (ABTS•+) involved mixing 5 mL of ABTS aqueous solution (7 mM) with […] of potassium persulfate (140 mM) while the mixture was left at room temperature for 16 h in the dark. […] The absorbance was then measured at 690 nm using a microplate reader (Tecan, USA). According to the following equation, data are shown as means (n = 3) SD:% Inhibition = [(A blank - A sample)/A blank] × 100 Using the linear regression method, the antioxidant effect of the various samples was determined as μM ascorbic acid equivalent.
# [1] = target: T1, porcine pancreatic lipase (PPL) (Sus scrofa, UniProt P00591); assay: Pancreatic lipase enzyme inhibition (p-NPD); assay type: biochemical
# T1 sequence (P00591 1-450): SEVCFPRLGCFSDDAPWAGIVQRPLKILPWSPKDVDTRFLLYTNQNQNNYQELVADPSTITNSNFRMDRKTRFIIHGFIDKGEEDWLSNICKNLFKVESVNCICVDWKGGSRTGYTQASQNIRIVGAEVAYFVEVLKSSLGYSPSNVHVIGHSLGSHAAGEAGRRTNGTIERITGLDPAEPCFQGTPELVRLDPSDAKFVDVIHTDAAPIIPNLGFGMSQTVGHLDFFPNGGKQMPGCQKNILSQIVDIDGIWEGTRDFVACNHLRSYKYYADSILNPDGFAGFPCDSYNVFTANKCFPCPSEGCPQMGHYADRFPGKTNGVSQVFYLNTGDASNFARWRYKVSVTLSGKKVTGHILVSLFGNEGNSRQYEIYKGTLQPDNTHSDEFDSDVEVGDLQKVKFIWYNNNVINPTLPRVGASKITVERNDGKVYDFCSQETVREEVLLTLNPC
# Description: P-nitrophenyl dodecanoate (p-NPD from Sigma Aldrich, St. Louis, MO, USA) was used as the substrate, and porcine pancreatic lipase (PPL) was prepared as previously stated by with minor modification. In sum, 25 μL of prepared samples along with a blank were first incubated with 50 µL of PPL (1 mg/mL) in a Tris-HCl buffer (100 mM, pH 8) for 10 min prior to detecting the PPL activity. Following the addition of […] of p-NPD (10 mM in isopropanol), the reaction was then incubated again at 37 °C for 20 min. using […] of Tris-HCl buffer as a volume diluent.
# [2] = Ferric reducing antioxidant power (FRAP) assay
# Description: The samples were made in a mixture of methanol: DMSO (10:1) at a concentration of 2 mg/mL, while quercetin rhamnoside was made at a concentration of 0.9 mM. To produce the concentration–response curve, seven concentrations, including 7.812, 15.625, 31.25, 62.5, 125, 250, and 500 µM, were created from a stock solution of 1000 µM concentration of ascorbic acid, the positive control. According to the procedure of Benzie et al., this assay was conducted with minor modifications. It depends on Fe^3+ reduction into Fe^2+ which forms a colored complex with 2,4,6-tris (2-pyridyl)-s-[…] (TPTZ). In brief, in a 96-well plate (n = 3), […] of the sample was combined with […] of freshly made TPTZ reagent (300 mM acetate buffer (pH = 3.6), 10 mM TPTZ in 40 mM HCl, and 20 mM FeCl3, in that order; respectively). The reaction was then allowed to run at room temperature for 30 min while kept in a dark place, and the absorbance was measured at 593 nm. Data are shown as means ± SD [26]. […]
# [3] = Oxygen radical absorbance capacity (ORAC) assay; conditions: Table S6; per mM compound
# Description: Trolox (positive control) was prepared at 2 mM in MeOH then serially diluted into ten concentrations 1000, 800, 700, 600, 500, 400, 300, 200, 100, and 50 μM for the concentration–response curve construction. The total extract and DCM fractions were made at 0.2 mg/mL in methanol, 100% and 50% were prepared at 0.05 mg/mL in methanol, while quercetin rhamnoside was prepared at a concentration of 0.225 mM in methanol. The assay was carried out using Liang et al.’s (2014) methodology, with minor modifications. In brief, 10 μL of the prepared samples were allowed to sit at 37 °C for 10 min with […] of fluoresceine (100 nM). For the background measurement, fluorescence measurements (485 EX, 520 EM, nm) were carried out three times for a total of 90 s each (range 1, Figure 1). Then, 70 μL of freshly made 2,2′-Azobis (2-amidinopropane) dihydrochloride (AAPH) (300 mM) was added to each well. For 60 min (40 cycles, each lasting 90 sec), the measurement of fluorescence (485 EX, 520 EM, nm) was maintained. The antioxidant impact of the samples was determined as the μM Trolox equivalent using the linear regression equation, and the data are shown as means (n = 3) SD.
# [4] = target: T2, Saccharomyces cerevisiae α-glucosidase (Saccharomyces cerevisiae, UniProt P53341); assay: α-glucosidase enzyme inhibition (pNPG, colorimetric); assay type: biochemical; conditions: pure compounds, read-out: IC50 (Mean ± SE)
# T2 construct: purchased Sigma-Aldrich G5003-100UN
# Description: Saccharomyces cerevisiae’s α-glucosidase was utilized (Sigma-Aldrich, St. Louis, MO, USA Cat#G5003-100UN). […] Seven concentrations, comprising 31.25, 62.5, 125, 250, 500, 750, and 1000 µM, were prepared from the buffer. […] Using p-nitrophenyl-D-glucopyranoside (pNPG) as a substrate, the inhibitory activity of α-Glucosidase was evaluated colorimetrically by applying the technique described by Gutiérrez-Grijalva et al. with minor modification. In 96-microwell plates, 25 μL of samples/blank were combined with 50 μL of S. cerevisiae α-glucosidase (0.6 U/mL) in phosphate buffer (0.1 M, pH 7) for 10 min at 37 °C. The mixture was then incubated once again for 5 min at 37 °C after the addition of 25 μL of 3 mM pNPG as a substrate in phosphate buffer (pH 7). Utilizing a microplate reader (Tecan, Männedorf, Switzerland) to measure the release of p-nitrophenol from the pNPG substrate at 405 nm, enzyme activity was ascertained [23]. After determining the absorbance (A), the inhibition % of -glucosidase was determined using the formula:% Inhibition = [(A blank − A sample)/A blank] × 100
# [5] = Metal chelation assay (Ferrozine)
# Description: Except for quercetin rhamnoside, all the samples were prepared at a concentration of 0.2 mg/mL in methanol. A stock solution of EDTA (positive control) was made at a concentration of 0.1 mM in water and serially diluted into seven concentrations (80, 70, 60, 50, 40, 20, and 10 μM) for the purpose of creating a concentration–response curve. The method described in [28] was used for the Ferrozine iron metal chelation test, with a few minor adjustments made for microplates. In brief, 50 μL of the sample or substance on a 96-well plate and 50 μL of acetate buffer pH = 6 (n = 6) were combined with 20 μL of newly produced ferrous sulphate (0.3 mM in acetate buffer pH = 6). Then, each well received 30 μL of Ferrozine (0.8 mM in acetate buffer, pH = 6). For 10 min, the reaction mixture was incubated at room temperature. At the completion of the incubation period, the FluoStar Omega microplate reader was used to measure the reduction in the intensity of the produced color. The following equation describes how data are expressed as means ± SD:% Inhibition = [(Average Absorbance of blank − Average Absorbance of Test)/Average Absorbance of blank] × 100
# The samples’ antioxidant potential was calculated as μM EDTA equivalents using the linear regression equation.
# T2 sequence (P53341 whole entry): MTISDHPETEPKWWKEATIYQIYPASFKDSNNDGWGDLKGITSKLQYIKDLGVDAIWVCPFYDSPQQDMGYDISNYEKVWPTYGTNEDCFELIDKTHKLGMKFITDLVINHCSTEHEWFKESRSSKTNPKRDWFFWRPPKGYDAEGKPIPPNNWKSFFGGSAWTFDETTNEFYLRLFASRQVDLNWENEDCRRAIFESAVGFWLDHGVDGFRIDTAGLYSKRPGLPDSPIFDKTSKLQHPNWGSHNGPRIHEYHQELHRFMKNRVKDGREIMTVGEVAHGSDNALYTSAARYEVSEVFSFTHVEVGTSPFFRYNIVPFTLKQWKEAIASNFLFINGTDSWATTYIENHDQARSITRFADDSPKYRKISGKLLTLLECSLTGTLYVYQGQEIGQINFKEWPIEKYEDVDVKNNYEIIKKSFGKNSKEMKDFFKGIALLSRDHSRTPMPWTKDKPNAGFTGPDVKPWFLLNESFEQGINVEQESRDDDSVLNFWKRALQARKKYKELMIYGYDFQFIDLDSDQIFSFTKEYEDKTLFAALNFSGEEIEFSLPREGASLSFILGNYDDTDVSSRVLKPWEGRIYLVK
Structure (SMILES),% inhibition (ABTS assay; 7.8125 µM),% inhibition (ABTS assay; 15.625 µM),% inhibition (ABTS assay; 31.25 µM),% inhibition (ABTS assay; 62.5 µM),% inhibition (ABTS assay; 125 µM),% inhibition (ABTS assay; 250 µM),% inhibition (ABTS assay; 500 µM),"inhibition at 500 µM ([1]; 500 µM, read-out: % Inhibition (Mean ± SD))","IC50 ([1]; pure compounds, read-out: IC50 (µM) (Mean ± SE))","Trolox equivalent per mM sample ([2]; Table S5, FRAP)","FRAP antioxidant activity, Trolox equivalent ([2]; per mM compound)",Antioxidant activity using ORAC assay [3],IC50 [4],"ABTS antioxidant activity, ascorbic acid equivalent (ABTS assay; per mM compound)",EDTA equivalent per mM sample ([5]; Table S7),"Metal chelation activity, EDTA equivalent ([5]; per mM compound)"
O=C1O[C@H]([C@@H](O)CO)C(O)=C1O [ascorbic acid],2.8930%,3.7803%,5.5156%,9.7291%,16.88%,33.5451%,62.86%,,,,,,,,,
"CC1OC(Oc2c(-c3ccc(O)c(O)c3)oc3cc(O)cc(O)c3c2=O)C(O)C(O)C1O (stereo not drawn) [Quercetin-3-rhamnoside, quercetin-3-O-α-rhamnoside]",,,,,,,,19.1 ± 0.34%,> 500 µM,1681.23 µM TE/mM sample,1681.2 ± 49.9 μmolar TE/mM,25258.39 µMT eq/mM,126.4 ± 1.04 µM,1338.1 ± 81.38 μM AAE/mM,377.98 µM eq/ mM sample,377.98 ± 10.17 μmolar EDTAE/mM

# — PMC10675073, “Effect of Phenolics from Aeonium arboreum on Alpha Glucosidase, Pancreatic Lipase, and Oxidative Stress; a Bio-Guided Approach” (Pharmaceutics, 2023)
